Laboratory results taken from US10206388B2, “Formulation component” (SYNGENTA LIMITED, priority 2011, dated 2019).

Assays:
Format in all cases: in vivo
Tetranychus urticae = test: Two spotted spider mite mortality on French bean, abamectin with aromatic ester adjuvants; settings: for % mortality of Tetranychus urticae: adjuvant 0.1% v/v where present, French bean, 10 days, larva and adults averaged
Protocol: The efficacy of the benzoic acid esters Finsolv® SB (isostearyl benzoate) and Finsolv® TN (C12-C15 alkyl benzoate) and the aromatic ester ethoxylate Dermol®25-3B (C12-C15 alkyl ethoxy (3) benzoate) as adjuvants in compositions containing abamectin was tested and compared to the efficacy of abamectin compositions which lack this type of adjuvant. The adjuvants were present at 0.1% v/v in the abamectin compositions. The surfactants polyoxyethylene sorbitan monooleate and an ethoxylated castor oil were also present in all the abamectin compositions tested.
Two week old French bean (Phaseolus vulgaris) plants were infested with a mixed population of two spotted spider mite Tetranychus urticae. One day after infestation the plants were treated with the test compositions, with a track sprayer from the top with a rate of 200 liters per hectare. Plants were incubated in the greenhouse for 10 days and the evaluation was done on mortality against Larva and Adults, just on the lower side (untreated) of the leaves. Each experiment was replicated twice and the results were averaged. The mortality against Larva and Adults was then averaged.

[1] = system: Digitaria sanguinalis (DIGSA); test: Glasshouse weed test, nicosulfuron with adjuvants; settings: mean over two rates
Protocol: (§1) The aromatic ester Finsolv® TN (C12-C15 alkyl benzoate) was tested in a glasshouse against four weed species using the herbicide nicosulfuron. An agrochemical composition was prepared containing 0.2% v/v of the adjuvant in a track sprayer, and was applied at a volume of 200 liters per hectare. Nicosulfuron was applied at either 30 or 60 grams of pesticide per hectare on each of the weed species. The weed species and their growth stage at spraying were Abutilon theophrasti (ABUTH; growth stage 13), Chenopodium album (CHEAL; growth stage 14), Digitaria sanguinalis (DIGSA; growth stage 13), and Setaria viridis (SETVI; growth stage 13).
(§2) Each spray test replicated three times. The efficacy of the herbicide was assessed visually and expressed as a percentage of the leaf area killed. Samples were assessed at time periods of 7, 14 and 20 days following application. The results shown in Table 6 below are mean averages over the two rates of nicosulfuron, three replicates and the three assessment timings, and are compared to the efficacy of nicosulfuron in the absence of an adjuvant, and nicosulfuron in the presence of the commercially available tank-mix adjuvant, Atplus411F®.
(§3) A second experiment was conducted to assess the efficacy of Finsolv® TN as an adjuvant in compositions of nicosulfuron. This was carried out as outlined above, with the following change: samples were assessed at 14 and 20 days post application.
(§4) The results shown in Table 7 below are mean averages over the two rates of nicosulfuron, three replicates and the two assessment timings, and are compared to the efficacy of nicosulfuron in the absence of an adjuvant, and nicosulfuron in the presence of the commercially available tank-mix adjuvant, Atplus411F®.
(§5) The aromatic esters Benzoate 1 (see Example 9), Benzoflex 354 (2,2,4-trimethyl-1,3-pentanediol dibenzoate) and Finsolv® SB (stearyl benzoate) were tested in a glasshouse against four weed species using the herbicide nicosulfuron. Nicosulfuron was applied at either 30 or 60 grams of pesticide per hectare on each of the weed species. The weed species and their growth stage at spraying were Abutilon theophrasti (ABUTH; growth stage 13), Chenopodium album (CHEAL; growth stage 14), Digitaria sanguinalis (DIGSA; growth stage 13), and Setaria viridis (SETVI; growth stage 13).
(§6) Each spray test replicated three times. The efficacy of the herbicide was assessed visually and expressed as a percentage of the leaf area killed. Samples were assessed at time periods of 14 and 20 days following application. The results shown in Table 14 below are mean averages over the two rates of nicosulfuron, three replicates and the two assessment timings, and are compared to the efficacy of nicosulfuron in the absence of an adjuvant, and nicosulfuron in the presence of the commercially available tank-mix adjuvant, Atplus411F®.

Setaria viridis (SETVI) = test: Glasshouse weed test, nicosulfuron with adjuvants; settings: mean over two rates
Protocol: as §1, §2, §3, §4, §5, §6

[2] = system: Chenopodium album (CHEAL); test: Glasshouse weed test, nicosulfuron with adjuvants; settings: mean over two rates
Protocol: as §1, §2, §3, §4, §5, §6

[3] = system: Abutilon theophrasti (ABUTH); test: Glasshouse weed test, nicosulfuron with adjuvants; settings: mean over two rates
Protocol: as §1, §2, §3, §4, §5, §6

[4] = system: four weed species (ABUTH, CHEAL, DIGSA, SETVI); test: Glasshouse weed test, nicosulfuron with adjuvants, mean across species; settings: mean over two rates
Protocol: as §1, §2, §3, §4, §5, §6
An agrochemical composition was prepared containing 0.2% v/v of the adjuvant in a track sprayer and was applied at a volume of 200 liters per hectare. The adjuvant oils were emulsified using a small amount of the surfactant Pluronic® PE 10500, which was present in the composition at a concentration of 0.02% v/v. Nicosulfuron was applied at either 30 or 60 grams of pesticide per hectare on each of the weed species. The weed species and their growth stage at spraying were Abutilon theophrasti (ABUTH; growth stage 13), Chenopodium album (CHEAL; growth stage 14-15), Digitaria sanguinalis (DIGSA; growth stage 14), and Setaria viridis (SETVI; growth stage 13-14).
Each spray test replicated three times. The efficacy of the herbicide was assessed visually and expressed as a percentage of the leaf area killed. Samples were assessed at time periods of 14 and 21 days following application. […]

[5] = Table 6, Example 5: nicosulfuron 30 or 60 g/ha, adjuvant 0.2% v/v, three replicates, 7, 14 and 20 days
[6] = Table 7, Example 5 second experiment: nicosulfuron 30 or 60 g/ha, adjuvant 0.2% v/v, three replicates, 14 and 20 days
[7] = Table 14, Example 10: nicosulfuron 30 or 60 g/ha, three replicates, 14 and 20 days

abamectin
% mortality of Tetranychus urticae (Tetranychus urticae; abamectin 0.2 ppm): 0%
% mortality of Tetranychus urticae (Tetranychus urticae; abamectin 0.4 ppm): 0%
% mortality of Tetranychus urticae (Tetranychus urticae; abamectin 0.8 ppm): 27%
% mortality of Tetranychus urticae (Tetranychus urticae; abamectin 1.5 ppm): 70%
% mortality of Tetranychus urticae (Tetranychus urticae; abamectin 3 ppm, lower untreated leaf side): 95%

COc1cc(OC)nc(NC(=O)NS(=O)(=O)c2ncccc2C(=O)N(C)C)n1 [Nicosulfuron, nicosulfuron]
Mean percentage kill DIGSA [1, 5]: 1.1 B %
Mean percentage kill DIGSA [1, 6]: 0.0 B %
Mean percentage kill DIGSA [1, 7]: 56.3 B %
Mean percentage kill SETVI (Setaria viridis (SETVI); [5]): 33.3 C %
Mean percentage kill SETVI (Setaria viridis (SETVI); [6]): 61.3 C %
Mean percentage kill SETVI (Setaria viridis (SETVI); [7]): 81.0 B %
Mean percentage kill CHEAL [2, 5]: 26.7 B %
Mean percentage kill CHEAL [2, 6]: 25.8 B %
Mean percentage kill CHEAL [2, 7]: 44.6 B %
Mean percentage kill ABUTH [3, 5]: 19.4 B %
Mean percentage kill ABUTH [3, 6]: 29.2 B %
Mean percentage kill ABUTH [3, 7]: 56.7 C %
Mean percentage kill, Mean across species [4, 5]: 20.1 B %
Mean percentage kill, Mean across species [4, 6]: 29.1 B %
Mean percentage kill, Mean across species [4, 7]: 59.6 B %
Mean percentage kill, Mean across species ([4]; Table 19, Example 15: nicosulfuron 30 or 60 g/ha, adjuvant 0.2% v/v emulsified with Pluronic PE 10500 0.02% v/v, three replicates, 14 and 21 days): 29.8B %
Mean percentage kill, Mean across species ([4]; Table 23, Example 19: absence of an adjuvant, nicosulfuron 30 or 60 g/ha, three replicates, 14 and 21 days): 40.1%
Mean percentage kill, Mean across species ([4]; Table 33, Example 33: nicosulfuron 30 or 60 g/ha, three replicates, 14 and 21 days): 40.1B %

CC(C)CCCCCCCCCCCCCCCOC(=O)c1ccccc1 [Finsolv® SB, Isostearyl benzoate]
Mortality of Tetranychus urticae (Tetranychus urticae; aromatic ester composition 0.1% v/v without abamectin present): no mortality
